Data as given in PubChem BioAssay (NCI).
Several values for one entry are separate records, joined by “and”; a condition that tells them apart may be missing. Equal values may be shown once.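 Values below derive from 48-hour exposures of cells grown in 96-well plates, with endpoints linearly interpolated between the two concentrations bracketing the appropriate inhibition level. Here, GI50 denotes the concentration required for 50% inhibition of growth. TGI: total growth inhibition.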

What was measured:
Test in all cases: NCI anticancer screen, dose series, 48 h
[1] = tested on: M14 melanoma
[2] = tested on: SK-MEL-5 melanoma
[3] = tested on: HT29 colon
[4] = tested on: 786-0 renal
[5] = tested on: SNB-19 CNS
[6] = tested on: SR leukemia
[7] = tested on: HL-60(TB) leukemia
[8] = tested on: CCRF-CEM leukemia
[9] = tested on: MDA-N
[10] = tested on: NCI-H522 lung
[11] = tested on: SK-MEL-2 melanoma

| SMILES | TGI [1] [µM] | TGI [2] | TGI [3] | TGI [4] [µM] | TGI [5] | TGI [6] | TGI [7] [µM] | TGI [8] [µM] | TGI [9] [µM] | TGI [10] | TGI [11] | GI50 [2] | GI50 [10] [µM] | GI50 [3] | GI50 [5] | GI50 [6] | GI50 [11] [µM] |
| --- | --- | --- | --- | --- | --- | --- | --- | --- | --- | --- | --- | --- | --- | --- | --- | --- | --- |
| CC(=O)/C(=C\c1ccc(Cl)c(Cl)c1)C(=O)C(C)CN(C)C (stereo not given) | 24.2 | 25.3 µM | 24.1 µM | 8.96 | 5.56 µM | 5.21 µM | 5.36 | 0.116 | 16.2 | – | – | – | – | – | – | – | – |
| Cc1cc2c(c(=O)n1C)SCC2 | > 100 | > 100 µM | > 100 µM | > 100 | > 100 µM | > 100 µM | – | > 100 | > 100 | > 100 µM | > 100 µM | – | – | – | – | – | – |
| Nc1ncnc2c1ncn2Cc1cccc(CCl)c1 | 29.7 | 30.4 µM | > 100 µM | 34.6 | – | 46 µM | > 100 | – | – | 32.5 µM | 31.9 µM | – | – | – | – | – | – |
| COc1ccc2nc3n(c2c1)CCc1cc(OC)c(OC)cc1-3 | > 100 | 47.2 µM | 95.8 µM | > 100 | > 100 µM | – | > 100 | > 100 | > 100 | > 100 µM | > 100 µM | – | – | – | – | – | – |
| CCOC(=O)c1cn(C)c(=S)n2c1nc1ccccc12 | > 100 | > 100 µM | – | > 100 | > 100 µM | > 100 µM | – | > 100 | – | – | > 100 µM | – | – | – | – | – | – |
| CC1(C2CCC3(C)OC3C2)CO1 (stereo not given) | > 100 | > 100 µM | > 100 µM | > 100 | > 100 µM | > 100 µM | > 100 | > 100 | – | > 100 µM | > 100 µM | – | – | – | – | – | – |
| CCOC(=O)C1CCCCN1CCc1c[nH]c2ccccc12 (stereo not given) | > 100 | > 100 µM | > 100 µM | > 100 | > 100 µM | > 100 µM | – | > 100 | > 100 | > 100 µM | > 100 µM | – | – | – | – | – | – |
| O=C(CC1Sc2ccccc2NC1=O)Nc1ccc(Cl)cc1 (stereo not given) | > 100 | > 100 µM | > 100 µM | – | > 100 µM | > 100 µM | > 100 | > 100 | – | > 100 µM | > 100 µM | – | – | – | – | – | – |
| O=C1C=CC(=O)c2c(O)c(N3CCN(CCOCCO)CC3)c(Cl)c(O)c21 | – | 1.81 µM [middle of 4 runs] | 1.66 µM and 1.61 µM and 1.07 µM | – | 26.5 µM and 18.4 µM and 26.1 µM | 0.43 µM and 0.614 µM and 0.321 µM | – | – | – | 1.19 µM and 0.352 µM | 4.51 µM and 1.11 µM | 688 nM [middle of 4 runs] | 0.313 | 0.42 µM and 0.592 µM and 0.288 µM | 13.4 µM [middle of 4 runs] | 0.104 µM and 0.0382 µM and 0.0771 µM | 2.3 |
| CO[C@H]1C[C@H](O[C@H]2CC[C@]3(C=O)[C@H]4CC[C@]5(C)[C@@H](C6=CC(=O)OC6)CC[C@]5(O)[C@@H]4CC[C@]3(O)C2)O[C@H](C)[C@H]1O | 4.19 | 0.385 µM | – | 1.57 | 4.8 µM | – | 2.51 | > 100 | 1.87 | 0.499 µM | 2.04 µM | – | – | – | – | – | – |
| C/C(Nc1ccc(Cl)cc1Cl)=C1/CCOC1=O | – | > 100 µM | > 100 µM | > 100 | 67.1 µM | > 100 µM | > 100 | > 100 | – | > 100 µM | – | – | – | – | – | – | – |
| C/C(=N\Nc1nc2ccccc2[nH]1)c1cc2ccccc2cn1 | 0.357 | 1.6 µM | 1.02 µM | 0.743 | 1.64 µM | > 100 µM | – | 5.65 | 2.24 | 1.13 µM | – | – | – | – | – | – | – |
| N#Cc1nc(C#N)n(C(=O)c2ccccc2)c1NC(=O)c1ccccc1 | > 100 | > 100 µM | > 100 µM | > 100 | > 100 µM | – | > 100 | > 100 | > 100 | > 100 µM | > 100 µM | – | – | – | – | – | – |
| CN(C)C(=S)Oc1ccc2ccc(=O)oc2c1 | > 100 | > 100 µM | > 100 µM | > 100 | > 100 µM | > 100 µM | > 100 | – | > 100 | > 100 µM | > 100 µM | – | – | – | – | – | – |
| COC(=O)C1=C(O)C(C(=O)OC)[C@]2(O)[C@H](C(=O)OC)[C@H]1C[C@@H](c1ccc([N+](=O)[O-])cc1)[C@H]2C(=O)OC (stereo not given in full) | 44.5 | 30 µM | 55.6 µM | 31 | 65.5 µM | – | 45.8 | 67 | 35.6 | 8.58 µM | 46.6 µM | – | – | – | – | – | – |
| NCCC1CN(C(=O)OCc2ccccc2)c2ccccc21 (stereo not given) | 27.4 | 24.7 µM | 25.8 µM | 29.8 | > 51.3 µM | 10.1 µM | – | – | 26.6 | 28.8 µM | 36.3 µM | – | – | – | – | – | – |
